Assay results published in patent US20260151372A1, “AZOTOMYCIN PRODRUGS WITH PREFERENTIAL TUMOR DELIVERY” (The Johns Hopkins University, priority 2022, published 2026).

Experiments:
Type in all cases: in vitro ADME
[1] = Metabolic stability in CES1-KO mouse liver homogenate; settings: tissue homogenate, 10 μM, 37° C.
Description: (§1) In vitro stability studies were done using CES1KO mouse plasma, human plasma, CES1-KO mouse liver, and human liver microsomes as previously described. For tissue homogenate stability studies, washed tissue was diluted 10-fold in 0.1 M potassium phosphate buffer and homogenized using probe sonication. Crude homogenate was then aliquoted to 1 mL, and spiked with 10 mM stock of the analyte in DMSO to achieve a 10 μM final concentration. The plasma stability of the prodrugs was determined by spiking the analyte in 1 mL of plasma. The plasma and tissues were incubated in an orbital shaker at 37° C. Stability in human liver microsomes was assessed at a final prodrug concentration of 1 μM with 0.2 mg/mL protein for microsomes. All the stability studies were conducted at predetermined times (0 and 60 min), where 50 μL aliquots of the mixture in triplicate were removed and the reaction was quenched by addition of 5 times the volume of ice-cold methanol spiked with the internal standard (losartan: 0.5 μM). The samples were vortex-mixed for 30 s and centrifuged at 10,000 g for 10 min at 4° C. An amount of 50 μL of the supernatant was diluted with 50 μL of water and transferred to a 250 μL polypropylene vial sealed with a Teflon cap. Prodrug disappearance was monitored over time using liquid chromatography and mass spectrometry (LC-MS).
(§2) Analyses were performed on a Dionex ultra high-performance LC system coupled with Q Exactive Focus orbitrap mass spectrometer (Thermo Fisher Scientific Inc., Waltham MA). Separation was achieved using Agilent Eclipse Plus column (100×2.1 mm i.d., maintained at 35° C.) packed with a 1.8 μm C18 stationary phase. The mobile phase consisted of 0.1% formic acid in water and 0.1% formic acid in acetonitrile, […] were operated at a flow rate of 0.3 mL/min for 7 min using gradient elution. The mass spectrometer controlled by Xcalibur software 4.0.27.13 (Thermo Scientific) was operated with a HESI ion source in positive ionization mode. Metabolites were identified in the full-scan mode (from m/z 50 to 1600) by comparing […] samples

[2] = Metabolic stability in human liver microsomes; settings: 1 μM prodrug, 0.2 mg/mL protein
Description: as §1, §2

[3] = Plasma stability in CES1KO mouse plasma; settings: 37° C., 60 min
Description: as §1, §2

[4] = Plasma stability in human plasma; settings: 37° C.
Description: as §1, §2

| SMILES | Liver Stability (% Remaining at 60 min) CES1^−/− Mouse Liver [1] [%] | Liver Stability (% Remaining at 60 min) Human Liver Microsomes [2] [%] | Plasma Stability (% Remaining at 60 min) CES1^−/− Mouse Plasma [3] [%] | Plasma Stability (% Remaining at 60 min) Human Plasma [4] [%] |
| --- | --- | --- | --- | --- |
| [N-]=[N+]=CC(=O)CC[C@H](NC(=O)[C@H](CCC(=O)C=[N+]=[N-])NC(=O)CC[C@H](N)C(=O)O)C(=O)O [Azotomycin] | 89.7 ± 0.88 | 23.7 ± 0.333 | 105 ± 7.64 | 74.3 ± 1.20 |
| CC(C)(C)OC(=O)[C@H](CCC(=O)C=[N+]=[N-])NC(=O)[C@H](CCC(=O)C=[N+]=[N-])NC(=O)CC[C@H](N)C(=O)OC(C)(C)C [Prodrug P1, tert-Butyl (S)-2-((S)-2-((S)-4-amino-5-(tert-butoxy)-5-oxopentanamido)-6-diazo-5-oxohexanamido)-6-diazo-5-oxohexanoate] | 87.0 ± 8.51 | 105 ± 0.859 | 101 ± 3.38 | 104 ± 1.00 |
| CC(=O)N[C@@H](CCC(=O)N[C@@H](CCC(=O)C=[N+]=[N-])C(=O)N[C@@H](CCC(=O)C=[N+]=[N-])C(=O)OC(C)(C)C)C(=O)OC(C)(C)C [Prodrug P2] | 100 ± 1.67 | 85.3 ± 7.88 | 104 ± 2.31 | 110 ± 4.70 |
| [N-]=[N+]=CC(=O)CC[C@H](NC(=O)[C@H](CCC(=O)C=[N+]=[N-])NC(=O)CC[C@H](N)C(N)=O)C(N)=O [Prodrug P5, (S)-4-Amino-N1-((S)-1-(((S)-1-amino-6-diazo-1,5-dioxohexan-2-yl)amino)-6-diazo-1,5-dioxohexan-2-yl)pentanediamide] | 4.33 ± 0.882 | 95.4 ± 0.595 | 87.7 ± 8.51 | 97.3 ± 2.85 |
| CC(=O)N[C@@H](CCC(=O)N[C@@H](CCC(=O)C=[N+]=[N-])C(=O)N[C@@H](CCC(=O)C=[N+]=[N-])C(N)=O)C(N)=O [Prodrug P6, (S)-4-Acetamido-N1-((S)-1-(((S)-1-amino-6-diazo-1,5-dioxohexan-2-yl)amino)-6-diazo-1,5-dioxohexan-2-yl)pentanediamide] | 85.0 ± 5.86 | 98.5 ± 0.676 | 99.0 ± 3.51 | 105 ± 1.76 |
| CN(C)CC(=O)N[C@@H](CCC(=O)N[C@@H](CCC(=O)C=[N+]=[N-])C(=O)N[C@@H](CCC(=O)C=[N+]=[N-])C(N)=O)C(N)=O [Prodrug P7, (S)—N1-((S)-1-(((S)-1-Amino-6-diazo-1,5-dioxohexan-2-yl)amino)-6-diazo-1,5-dioxohexan-2-yl)-4-(2-(dimethylamino)acetamido)pentanediamide] | 109 ± 10.0 | 95.3 ± 0.168 | 98.0 ± 12.5 | 98.7 ± 2.67 |
| CN(C)CC(=O)N[C@@H](Cc1c[nH]c2ccccc12)C(=O)N[C@@H](CCC(=O)N[C@@H](CCC(=O)C=[N+]=[N-])C(=O)N[C@@H](CCC(=O)C=[N+]=[N-])C(N)=O)C(N)=O [Prodrug P8, (S)—N1-((S)-1-(((S)-1-Amino-6-diazo-1,5-dioxohexan-2-yl)amino)-6-diazo-1,5-dioxohexan-2-yl)-4-((S)-2-(2-(dimethylamino)acetamido)-3-(1H-indol-3-yl)propanamido)pentanediamide] | 49.7 ± 0.333 | 95.8 ± 0.141 | 99.3 ± 1.45 | 109 ± 1.00 |
| CC(C)OC(=O)[C@H](CCC(=O)C=[N+]=[N-])NC(=O)[C@H](CCC(=O)C=[N+]=[N-])NC(=O)CC[C@H](N)C(=O)OC(C)C [Prodrug P9, Isopropyl (S)-2-((S)-2-((S)-4-amino-5-isopropoxy-5-oxopentanamido)-6-diazo-5-oxohexanamido)-6-diazo-5-oxohexanoate] | 0.320 ± 0.026 | >100 | 84.3 ± 10.5 | 85.9 ± 3.63 |
| [N-]=[N+]=CC(=O)CC[C@H](NC(=O)[C@H](CCC(=O)C=[N+]=[N-])NC(=O)CC[C@H](NC(=O)CN)C(=O)[O-])C(=O)[O-].[Na+].[Na+] [Prodrug P10, Sodium (S)-2-((S)-2-((S)-4-(2-aminoacetamido)-4-carboxylatobutanamido)-6-diazo-5-oxohexanamido)-6-diazo-5-oxohexanoate] | 90.4 ± 2.76 | 90.4 ± 4.10 | 104 ± 3.67 | 90.5 ± 6.35 |
| CCOC(=O)[C@H](CCC(=O)N[C@@H](CCC(=O)C=[N+]=[N-])C(=O)N[C@@H](CCC(=O)C=[N+]=[N-])C(=O)[O-])NC(=O)CN(C)C.[Na+] [Prodrug P11, Sodium (6S,11S,14S)-11,14-bis(4-diazo-3-oxobutyl)-6-(ethoxycarbonyl)-2-methyl-4,9,12-trioxo-2,5,10,13-tetraazapentadecan-15-oate] | 96.3 ± 1.80 | 103 ± 4.97 | 91.8 ± 4.16 | 83.6 ± 1.76 |
| CN(C)CC(=O)N[C@@H](CCC(=O)N[C@@H](CCC(=O)C=[N+]=[N-])C(=O)N[C@@H](CCC(=O)C=[N+]=[N-])C(=O)[O-])C(=O)[O-].[Na+].[Na+] [Prodrug P12, Sodium (6S,11S,14S)-6-carboxylato-11,14-bis(4-diazo-3-oxobutyl)-2-methyl-4,9,12-trioxo-2,5,10,13-tetraazapentadecan-15-oate] | 111 ± 9.27 | 99.6 ± 3.50 | 95.6 ± 0.44 | 76.2 ± 7.25 |
| CCOC(=O)[C@H](CCC(=O)C=[N+]=[N-])NC(=O)[C@H](CCC(=O)C=[N+]=[N-])NC(=O)CC[C@H](NC(=O)CN(C)C)C(=O)O [Prodrug P13, N^5—((S)-6-diazo-1-(((S)-6-diazo-1-ethoxy-1,5-dioxohexan-2-yl)amino)-1,5-dioxohexan-2-yl)-N^2-(dimethylglycyl)-L-glutamine] | 1.55 ± 0.77 | 109 ± 2.22 | 107 ± 6.6 | 86.6 ± 2.69 |
| CN(C)CC(=O)N[C@@H](CCC(=O)N[C@@H](CCC(=O)C=[N+]=[N-])C(=O)N[C@@H](CCC(=O)C=[N+]=[N-])C(=O)[O-])C(=O)OC(C)(C)C.[Na+] [Prodrug P14, Sodium (6S,11S,14S)-6-(tert-butoxycarbonyl)-11,14-bis(4-diazo-3-oxobutyl)-2-methyl-4,9,12-trioxo-2,5,10,13-tetraazapentadecan-15-oate] | 82.4 ± 4.03 | 103 ± 2.31 | 111 ± 4.09 | 96.2 ± 3.21 |
| CN(C)CC(=O)N[C@@H](CCC(=O)N[C@@H](CCC(=O)C=[N+]=[N-])C(=O)N[C@@H](CCC(=O)C=[N+]=[N-])C(=O)OC(C)(C)C)C(=O)[O-].[Na+] [Prodrug P15, Sodium N^5—((S)-1-(((S)-1-(tert-butoxy)-6-diazo-1,5-dioxohexan-2-yl)amino)-6-diazo-1,5-dioxohexan-2-yl)-N^2-(dimethylglycyl)-L-glutaminate] | 99.9 ± 3.45 | 93.2 ± 4.29 | >100 | 104 ± 8.45 |
| CC(C)C[C@H](N)C(=O)N[C@@H](CCC(=O)N[C@@H](CCC(=O)C=[N+]=[N-])C(=O)N[C@@H](CCC(=O)C=[N+]=[N-])C(=O)[O-])C(=O)[O-].[Na+].[Na+] [Prodrug P16, Sodium (S)-2-((S)-2-((S)-4-((S)-2-amino-4-methylpentanamido)-4-carboxylatobutanamido)-6-diazo-5-oxohexanamido)-6-diazo-5-oxohexanoate] | 4.50 ± 1.58 | 91.0 ± 1.01 | 4.17 ± 0.58 | 87.4 ± 1.61 |
